Earlier results on one compound are cited in patent US20230071934A1, “NOVEL USES” (Intra-Cellular Therapies, Inc., priority 2019, published 2023).

For this data set, the target named is T1, sEH (Homo sapiens, UniProt P34913).
T1 sequence (P34913 1-555): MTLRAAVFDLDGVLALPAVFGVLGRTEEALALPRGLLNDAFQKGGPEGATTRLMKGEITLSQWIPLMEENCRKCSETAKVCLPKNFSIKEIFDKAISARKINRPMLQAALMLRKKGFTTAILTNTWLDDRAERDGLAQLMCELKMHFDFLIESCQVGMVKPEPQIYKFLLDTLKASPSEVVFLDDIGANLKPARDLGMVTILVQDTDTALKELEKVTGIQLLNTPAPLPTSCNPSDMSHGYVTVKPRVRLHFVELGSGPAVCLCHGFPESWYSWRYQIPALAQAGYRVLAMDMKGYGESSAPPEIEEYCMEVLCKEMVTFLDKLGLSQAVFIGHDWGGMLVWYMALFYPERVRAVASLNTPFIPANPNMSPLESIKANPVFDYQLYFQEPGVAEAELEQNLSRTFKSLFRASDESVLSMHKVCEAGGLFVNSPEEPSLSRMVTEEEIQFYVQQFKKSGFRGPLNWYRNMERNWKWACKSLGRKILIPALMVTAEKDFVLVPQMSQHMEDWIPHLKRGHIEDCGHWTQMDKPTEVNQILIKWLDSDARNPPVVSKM

Consider `CCCCCCCCCCCCNC(=O)NC12CC3CC(CC(C3)C1)C2` [ADU, N-Adamantyl-N′-dodecyl urea], for which the “activity as an inhibitor of sEH” value is “particularly high activity”.
